According to patent US8546095B2, “Methods for determination of calcineurin activity and uses in predicting therapeutic outcomes” (Emory University, priority 2007, dated 2013):
“Also recorded” adds a separate entry of the source.

Legend:
calcineurin [1] = test: Fluorimetric calcineurin assay in isolated PBMCs (PMA or anti-CD3 stimulation, in vitro calcineurin inhibitors); assay type: cell-based, human
Method: It was also shown that the fold change in calcineurin activity in response to anti-CD3 was sensitive to tacrolimus inhibition. Thus, PBMCs from control subjects were incubated with increasing amounts of tacrolimus before the anti-CD3 stimulation and the calcineurin activity was then measured.
It was further determined whether in vitro addition of calcineurin inhibitors could further inhibit calcineurin activity in samples from transplant subjects.
(i) Collection of samples. Heparinized blood can be obtained by routine phlebotomy and PBMC isolated and frozen in 10% DMSO. Samples will be thawed and viability confirmed prior to treatment.
(ii) Treatment of T cells. Three parameters of calcineurin activity: 1) base-line levels of the enzyme; 2) the increase in calcineurin in response to general stimuli; and, 3) the response of calcineurin to T cell receptor specific activation.
PBMCs were thawed, viable cells counted and then separated into aliquots of about 2×10^5 cells. Based on preliminary experiments, samples were treated with anti-CD3 (Muromonab, 10 μg/ml) antibodies for 15 mins at 37° C. Based on preliminary dose and time curves, PMA was added to aliquots for 5 mins. Control samples were included with either no treatment or adjuvant-only (DMSO). These manipulations yielded base-line activity, maximum non-specific activation, and TCR-stimulated activity.
(iii) 20 μl diluted peptide substrate, 20 μl of reaction buffer, and 20 μl of sample were loaded into individual wells of a 96-well plate and incubated at 30° C. for 10 minutes. During the reaction time, a 96-well plate with titanium oxide-coated wells was prepared by adding 50 μl binding buffer (0.1% acetic acid in 10% acetonitrile) per well. After the incubation period, reactions were transferred into prepared titanium oxide-coated wells following by gentle shaking for 5 minutes. The contents of each well were then removed to a white 96-well plate preloaded with 20 μl of 3N ammonium hydroxide.

calcineurin [2] = test: Fluorimetric calcineurin assay in cultured primary renal fibroblasts
Method: FIG. 16A: Cultured renal fibroblasts were treated with a variety of stimuli including arginine vasopressin (AVP), dexamethasone, and phorbol myristate acetate (PMA) to induce calcineurin activity. In addition, some cells were pre-treated with calcineurin inhibitors prior to the addition of PMA. Cells were lysed according to previously established methods and then calcineurin activity was determined. Data shown is the mean+/−SEM of triplicate samples compared to a standard curve. […] Tissues were lysed according to previously established methods and calcineurin activity determined. Data shown are the mean+/−SEM of triplicate samples compared to a standard curve.
When the absorbance values obtained were compared to a standard curve of recombinant calcineurin run simultaneously, a determination of calcineurin activity in each condition can be made.

calcineurin [3] = test: Radiometric calcineurin assay in isolated T cells after T cell receptor stimulation with anti-CD3/anti-CD28 antibodies, with or without inhibitor pre-treatment; assay type: cell-based, human; conditions: for effect of pre-treatment on anti-CD3/anti-CD28-stimulated calcineurin activity (words): control T cells, tacrolimus/FK506 5 ng/ml, cyclosporine A printed as 500 ng/ml, 5 μg/ml or 5 mg/ml
Method: (§1) 40 mLs of heparinized blood was collected from the study participants. T cells were then isolated using the Prepacyte SC reagent (BioE WBP2000 St. Paul Minn.) antibody negative selection and Vitalyse (BioE KI-135) treated to eliminate remaining erythrocytes. Cells were pelleted by centrifugation, washed with 1× phosphate-buffered saline, and resuspended in RPMI 1640 containing penicillin/streptomycin antibiotics, 10% fetal calf serum, 2 mM 1-glutamine, 25 mM glucose, and 1 mM sodium pyruvate.
(§2) Calcineurin activity was determined using an in vitro assay as described in Fruman et al, Methods in Enzymology 9, 146-154 (1996) and Lea et al., J Am Soc Nephrol 13, 1750-1756 (2002), both of which are incorporated herein by reference in their entireties. Following treatment, isolated lymphocytes were pelleted and then re-suspended in calcineurin buffer ([…], 250 μM KCl, 10 mg/ml BSA, 5 mg/ml DTT, pH 7.5). Cells were then lysed by three cycles of freeze-thawing in liquid nitrogen and a 37° C. water bath. The concentration of harvested proteins was determined by the BCA method (Pierce Biotechnology, Rockford, Ill.) and then […] of sample was incubated with equal volumes of calcineurin reaction buffer (100 nM calmodulin, 0.1 mM CaCl, 25 μgs calyculin, 3 μg cold RII peptide) and 30 γ^32P[ATP]-labeled RII peptide substrate.
(§3) The reaction was allowed to proceed for 10 minutes, and then 10 mgs/ml charcoal/TCA solution was added to each sample to stop the reaction. Finally, samples were passed through millipore filtration buckets, scintillation fluid added, and the amount of released phosphates read in an automated counter. Reactions were performed in triplicate and final data for subjects were calculated as the mean of triplicate samples minus control reactions to normalize for background.
T cell isolates were stimulated for 15 minutes with multiple agents including calcium ionophore, phorbal myristate […] (PMA), and anti-CD3/CD28 antibodies. […] Next, T cells were pre-treated for 30 minutes with cyclosporine (5 mg/ml) or FK506 (5 ng/ml) and then CD3/CD28-mediated stimulation was measured.

calcineurin [4] = test: Radiometric calcineurin assay, basal activity in isolated CD3+/4+ T cells treated in vitro; assay type: cell-based, human; conditions: for inhibition of basal calcineurin activity: 5 ng/ml
Method: as §1, §2, §3
To ensure that calcineurin activity was measured in a uniform population of cells, experiments were performed in isolated lymphocytes that were enriched for CD3^+/4^+ T cells using erythrocyte lysis, gradient centrifugation, and Prepacyte SC reagent (BioE, St. Paul Minn.).
First, T cells were isolated from control subjects and were then treated in vitro with vehicle (DMSO) or 5 ng/ml tacrolimus for 15 minutes.

[5] = human, in vivo
Method: Stimulation of calcineurin activity was also determined for caucasian and African-American transplant patients. […] Trough blood levels of FK506 for both caucasian and African-American transplant patients were obtained at the time of T cell isolation.

recombinant calcineurin = target: T1, recombinant calcineurin (Homo sapiens, UniProt Q08209); test: Fluorimetric calcineurin assay with recombinant calcineurin and standard controls; assay type: biochemical; conditions: 0.2 ng recombinant calcineurin, ANOVA
T1 construct: purchased Calbiochem (San Diego, Calif.)
Method: Reactions using 0.2 ng of recombinant calcineurin along with standard controls for calcineurin activity, including heat inactivation of the recombinant enzyme, addition of an autoinhibitory peptide, absence of calcium, and chelation of calcium with EGTA were investigated.
Recombinant calcineurin was from Calbiochem (San Diego, Calif.), and all other chemicals were obtained from Sigma (St Louis, Mo.). The RII peptide, Fluoresceinyl-[…]frican-AmericanE, and its phosphorylated analog (Fluoresceinyl-[…]pSVAfrican-AmericanE where pS=L-phosphoserine) were synthesized by Fmoc-based solid-phase peptide synthesis using model Liberty microwave-assisted peptide synthesizer (CEM Corporation, Matthews, N.C.). The peptides were purified to apparent homogeneity by reversed-phase HPLC and their masses were confirmed by mass spectrometry. Peptides were diluted in: Tris 50 mM, 100 mM NaCl, 0.5 mM DTT, and 0.1 mg/ml bovine serum albumen to a final concentration of 30 ng/ml. Reaction buffer consisted of 0.1 mg/ml BSA, 35 mM Tris pH 7.5, 25 mM NaCl, 2.0 mM MgCl2, 270 μM DTT, 500 μM EDTA, 419 nM Okadaic acid (in 0.63% ethanol), 25 mM CaCl2. Titanium oxide plates were pre-incubated with a binding buffer consisting of 0.1% acetic acid in 10% acetonitrile. […]

With CCCCCCCCCCCCCC(=O)O[C@@H]1[C@@H](C)[C@@]2(O)[C@@H](C=C(CO)C[C@]3(O)C(=O)C(C)=C[C@@H]23)[C@@H]2C(C)(C)[C@]12OC(C)=O [PMA, phorbol myristate acetate] the “stimulation of calcineurin activity” value (calcineurin [1]; control PBMCs) was “stimulated calcineurin activity in control cells”, the “stimulation of calcineurin activity” value (calcineurin [1]; transplant recipient-derived PBMCs) was “not in the transplant recipient-derived PBMC samples” and the “stimulation of calcineurin activity” value (calcineurin [2]) was “significantly stimulated calcineurin activity”.

In the case of C=CC[C@@H]1/C=C(\C)C[C@H](C)C[C@H](OC)[C@H]2O[C@@](O)(C(=O)C(=O)N3CCCC[C@H]3C(=O)O[C@H](/C(C)=C/[C@@H]3CC[C@@H](O)[C@H](OC)C3)[C@H](C)[C@@H](O)CC1=O)[C@H](C)C[C@@H]2OC [tacrolimus], the “effect on fold change in calcineurin activity with anti-CD3 stimulation” value (calcineurin [1]; control PBMCs incubated with increasing amounts before anti-CD3 stimulation) is reported as “inhibited by tacrolimus in a dose-dependent fashion; also recorded: inhibited in control PBMCs in a dose-responsive manner”, the “effect of pre-treatment on anti-CD3/CD28-stimulated calcineurin activity” value (calcineurin [3]; African-American control subjects, listed as FK506) is reported as “neither cyclosporine A nor FK506 significantly reduced calcineurin activity; also recorded: neither cyclosporine nor FK506 pre-treatment inhibited calcineurin activity” and the “effect of pre-treatment on anti-CD3/CD28-stimulated calcineurin activity” value (calcineurin [3]; caucasian control subjects) is reported as “inhibited”. For the same molecule, the “effect of pre-treatment on anti-CD3/anti-CD28-stimulated calcineurin activity (words)” value (calcineurin [3]) was “blocked the CD3/CD28 stimulation; also recorded: blocked the rise in calcineurin activity; also recorded: effective at blocking the induction”, the “effect of pre-treatment on anti-CD3/anti-CD28-stimulated calcineurin activity (words)” value (calcineurin [3]; listed as FK506) was “significantly reduced CD3/CD28-mediated calcineurin activity; also recorded: blocked stimulation” and the “effect of pre-treatment on PMA-stimulated calcineurin activity” value (calcineurin [2]) was “blocked stimulation by PMA”. The “effect on basal calcineurin activity” value (calcineurin [4]; control T cells (N=81), 5.0 ng/ml in vitro, p<0.001) was “significantly decreased calcineurin activity”, the “calcineurin activity after in vitro tacrolimus” value (calcineurin [4]; control subjects' T cells, 5 ng/ml for 15 minutes, vehicle (DMSO) 913±6) was 662±6 fmole/μg protein/min and the “inhibition of basal calcineurin activity” value (calcineurin [4]; female control subjects) was 30±4%. For the same molecule, the “inhibition of basal calcineurin activity” value (calcineurin [4]; male control subjects) was 27±4% and the mean plasma level [5] was 11.4 ng/mL.

For NC(=O)CC[C@@H]1NC(=O)[C@H](Cc2ccccc2)NC(=O)[C@H](Cc2ccc(O)cc2)NC(=O)[C@@H](N)CSSC[C@@H](C(=O)N2CCC[C@H]2C(=O)N[C@@H](CCCN=C(N)N)C(=O)NCC(N)=O)NC(=O)[C@H](CC(N)=O)NC1=O [Arginine vasopressin (AVP), arginine vasopressin], the “stimulation of calcineurin activity” value (calcineurin [2]) was “significantly stimulated calcineurin activity”.

In the case of O=C(O)CN(CCOCCOCCN(CC(=O)O)CC(=O)O)CC(=O)O [EGTA], the “effect on dephosphorylation by recombinant calcineurin” value (recombinant calcineurin) is reported as “significantly reduced”.

In the case of “anti-CD3: anti-CD3 (Muromonab, 10 μg/ml) antibodies for TCR-specific activation without co-stimulation”, the “stimulation of calcineurin activity” value (calcineurin [1]; control PBMCs) is reported as “observed only in control PBMCs”.
